Results as given in patent publication US20040147720A1, “Novel guasonine triphosphate-binding protein -coupled receptor place 6002312, its gene and production and use of the same” (priority 2001, published 2004).

Assays:
HEK293 cells (Mock) = HEK293 cells (Mock) with pcDNA3.1(−), not expressing PLACE6002312; [^3H]-histamine 0, 40, 80, 160 nM; room temperature 1 hr; FIG. 7
Protocol: (§1) The ligand-binding assay can serve as a direct method of receptor pharmacology, and is applicable to high-throughput systems. […] First, human embryonic kidney 293 (HEK293) cells were plated on a 10-cm cell culture dish at the cell density of 1×10^6 cells/dish, and incubated in a humidified incubator under 5% CO2 at 37° C. for 24 hr. Then, 10 μg/dish of pcDNA3.1(−)-PLACE6002312 plasmid was transfected by the calcium phosphate method (Mol. Pharm. (1997)-51: 171). After the culturing was continued for 14 hr, the medium was changed with fresh D-MEM containing 10% FBS, and the cells were incubated for another 2 days. After the culturing had completed, the cells were washed with PBS(−), and then suspended in FBS-free D-MEM at the cell density of 1×10^6 cells/ml. The cell suspension were aliquoted (50 μl/well) into flat-bottomed 96-well plate (Sumitomo Bakelite Co.) pre-siliconized with Siliconize L-25 (Fuji Systems). 50-μl aliquots of D-MEM were added to each well, and then radio-labeled [^3H]-histamine was added thereto at the final concentrations of 0, 40, 80, and 160 nM. The plate was incubated at room temperature for 1 hr. Assays for the non-specific binding of [^3H]-histamine were carried out using D-MEM to which unlabeled histamine had been added previously at the final concentration of 1×10^−5 M. […]

PLACE6002312 polypeptide = PLACE6002312 polypeptide (Homo sapiens, UniProt Q8TDU6); conditions: HEK293 cells with pcDNA3.1(−)-PLACE6002312; [^3H]-histamine 0, 40, 80, 160 nM; room temperature 1 hr; non-specific binding with 1×10^−5 M unlabeled histamine; FIG. 7
Protocol: as §1

Chain of PLACE6002312 polypeptide (Q8TDU6 whole entry): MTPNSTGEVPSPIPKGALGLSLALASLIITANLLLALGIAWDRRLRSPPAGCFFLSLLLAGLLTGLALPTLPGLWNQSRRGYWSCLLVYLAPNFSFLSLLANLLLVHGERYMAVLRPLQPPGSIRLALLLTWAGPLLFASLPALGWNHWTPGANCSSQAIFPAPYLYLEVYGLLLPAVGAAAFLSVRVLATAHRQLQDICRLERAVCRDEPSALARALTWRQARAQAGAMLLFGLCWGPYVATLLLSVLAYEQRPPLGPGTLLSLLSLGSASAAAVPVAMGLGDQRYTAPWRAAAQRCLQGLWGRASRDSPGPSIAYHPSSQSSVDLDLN

specific binding to [^3H]-histamine (total binding minus non-specific binding) (PLACE6002312 polypeptide): detected
Compound: NCCc1c[nH]cn1 [histamine]
specific binding to [^3H]-histamine (total binding minus non-specific binding) (HEK293 cells (Mock)): undetectable
